Test system: rat small-intestinal brush border membrane vesicles
Experiment: Inhibitory effect on 33PO4 uptake into rat small-intestinal brush border membrane vesicles (rapid filtration method)
Assay type: biochemical
Conditions: 33PO4 uptake into rat small-intestinal BBMVs; test compound 1 µM; reacted for 60 seconds
How it was run: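 Uptake of ^33PO4 was measured by rapid filtration and liquid scintillation counting of filter-retained vesicles, after quenching with ice-cold 110 mM NaCl/1 mM KH2PO4/10 mM HEPES pH 7.5. Vesicles were brush border membranes from the upper small intestine of female Wistar rats aged 4–5 weeks.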

SMILES	Rate of uptake inhibition (%) (1 µM)
CN1N(Cc2ccc(OCCN3CCOCC3)c(F)c2F)C(=O)C(C(=O)Nc2ccc(C(F)(F)F)cc2-c2ccc(C(F)(F)F)nc2)=C(O)C12CCCC2 [Example 287]	47%
CN1N(Cc2ccc(OCCN3CCOCC3)c(F)c2F)C(=O)C(C(=O)Nc2ccc(Cl)cc2-c2ccc(C(F)(F)F)nc2)=C(O)C12CCCC2 [Example 288]	61%
CSc1ccc(-c2cc(C(F)(F)F)ccc2NC(=O)C2=C(O)C3(CCCC3)N(C)N(Cc3ccc(OCCN4CCOCC4)c(F)c3F)C2=O)cn1 [Example 289]	55%
Cc1c(-c2cc(C(F)(F)F)ccc2NC(=O)C2=C(O)C3(CCCC3)N(C)N(Cc3ccc(OCCN4CCOCC4)c(F)c3F)C2=O)ncnc1C(F)(F)F [Example 290]	59%
CCC1(CC)C(O)=C(C(=O)Nc2ccc(C(F)(F)F)cc2-c2cc(C(F)(F)F)ncn2)C(=O)N(Cc2ccc(OCCN3CCOCC3)c(F)c2F)N1C [Example 291]	47%
CCC1(CC)C(O)=C(C(=O)Nc2ccc(Cl)cc2-c2cc(C(F)(F)F)ncn2)C(=O)N(Cc2ccc(OCCN3CCOCC3)c(F)c2F)N1C [Example 292]	44%
CCC1(CC)C(O)=C(C(=O)Nc2ccc(C(F)(F)F)cc2-c2ccc(C(F)(F)F)nc2)C(=O)N(Cc2ccc(OCCN3CCOCC3)c(F)c2F)N1C [Example 293]	47%
CCC1(CC)C(O)=C(C(=O)Nc2ccc(Cl)cc2-c2ccc(C(F)(F)F)nc2)C(=O)N(Cc2ccc(OCCN3CCOCC3)c(F)c2F)N1C [Example 294]	40%
CN1N(Cc2ccc(OCCN3CCOCC3)c(F)c2F)C(=O)C(C(=O)Nc2ccc(C(F)(F)F)cc2-c2cc(C(F)(F)F)ncn2)=C(O)C12CCCCC2 [Example 295]	21%
Cc1c(-c2cc(C(F)(F)F)ccc2NC(=O)C2=C(O)C3(CCCCC3)N(C)N(Cc3ccc(OCCN4CCOCC4)c(F)c3F)C2=O)ncnc1C(F)(F)F [Example 296]	17%
CN1N(Cc2ccc(OCCN3CCOCC3)c(F)c2F)C(=O)C(C(=O)Nc2ccc(Cl)cc2-c2cc(C(F)(F)F)ncn2)=C(O)C12CCCCC2 [Example 297]	36%
CN1N(Cc2ccc(OCCN3CCOCC3)c(F)c2F)C(=O)C(C(=O)Nc2ccc(Br)c(C(F)(F)F)n2)=C(O)C12CCCCC2 [Example 298]	10%
CC1(C)C(O)=C(C(=O)Nc2ccc(C(F)(F)F)cc2-c2cc(C(F)(F)F)ncn2)C(=O)N(Cc2cccc(F)c2F)N1c1ccccc1 [Example 299]	45%
CN1N(Cc2cccc(F)c2F)C(=O)C(C(=O)Nc2ccc(C(F)(F)F)cc2-c2cc(C(F)(F)F)ncn2)=C(O)C12CCC2 [Example 300]	74%
CN1N(Cc2cccc(F)c2F)C(=O)C(C(=O)Nc2ccc(C(F)(F)F)cc2-c2ccc(C(F)(F)F)nc2)=C(O)C12CCC2 [Example 301]	79%
COc1cc(-c2cc(C(F)(F)F)ccc2NC(=O)C2=C(O)C(C)(C)N(C)N(Cc3cccc(F)c3F)C2=O)cnc1C#N [Example 302]	79%
CN1N(Cc2cccc(F)c2F)C(=O)C(C(=O)Nc2ccc(C(F)(F)F)cc2-c2cc(C#N)ncn2)=C(O)C1(C)C [Example 303]	42%
CN1N(Cc2cccc(F)c2F)C(=O)C(C(=O)Nc2ccc(C(F)(F)F)nc2-c2ccc(C(F)(F)F)nc2)=C(O)C1(C)C [Example 304]	51%
CN1N(Cc2cccc(F)c2F)C(=O)C(C(=O)Nc2ccc(C(F)(F)F)cc2-c2cncc(C(F)(F)F)c2)=C(O)C1(C)C [Example 305]	66%
CN1N(Cc2cccc(F)c2F)C(=O)C(C(=O)Nc2ccc(C(F)(F)F)nc2-c2cncc(C(F)(F)F)c2)=C(O)C1(C)C [Example 306]	58%

SMILES	Rate of uptake inhibition (%) (1 µM)
CN1N(Cc2cccc(F)c2F)C(=O)C(C(=O)Nc2cc(C(F)(F)F)ccc2-c2ccc(C(F)(F)F)nc2)=C(O)C1(C)C [Example 307]	41%
CN1N(Cc2cccc(F)c2F)C(=O)C(C(=O)Nc2ccc(C(F)(F)F)cc2-c2ccc(S(=O)(=O)N(C)C)cc2)=C(O)C1(C)C [Example 308]	63%
CN1N(Cc2cccc(F)c2F)C(=O)C(C(=O)Nc2ccc(Cl)cc2-c2ccc(C(F)(F)F)nc2)=C(O)C1(C)C [Example 309]	68%
CSc1ccc(-c2cc(C(F)(F)F)ccc2NC(=O)C2=C(O)C(C)(C)N(C)N(Cc3cccc(F)c3F)C2=O)cn1 [Example 310]	63%
Cc1c(C#N)ncnc1-c1cc(C(F)(F)F)ccc1NC(=O)C1=C(O)C(C)(C)N(C)N(Cc2cccc(F)c2F)C1=O [Example 311]	65%
CN1N(Cc2cccc(F)c2F)C(=O)C(C(=O)Nc2ccc(C(F)(F)F)cc2-c2ncnc(C#N)c2Cl)=C(O)C1(C)C [Example 312]	74%
CN1N(Cc2ccc(OCCN3CCOCC3)c(F)c2F)C(=O)C(C(=O)Nc2ccc(C(F)(F)F)cc2-c2cc(C(F)(F)F)ncn2)=C(O)C1(C)C [Example 313, 2-[[2,3-Difluoro-4-(2-morpholin-4-ylethoxy)phenyl]methyl]-5-hydroxy-1,6,6-trimethyl-3-oxo-N-[4-(trifluoromethyl)-2-[6-(trifluoromethyl)pyrimidin-4-yl]phenyl]pyridazine-4-carboxamide]	65%
CN1N(Cc2ccc(OCCN3CCOCC3)c(F)c2F)C(=O)C(C(=O)Nc2ccc(C(F)(F)F)cc2-c2ccc(C(F)(F)F)nc2)=C(O)C1(C)C [Example 314, 2-[[2,3-Difluoro-4-(2-morpholin-4-ylethoxy)phenyl)methyl]-5-hydroxy-1,6,6-trimethyl-3-oxo-N-[4-(trifluoromethyl)-2-[6-(trifluoromethyl)pyridin-3-yl]phenyl]pyridazine-4-carboxamide]	72%
CN1N(Cc2ccc(C#CCN3CCOCC3)c(F)c2F)C(=O)C(C(=O)Nc2ccc(C(F)(F)F)cc2-c2cc(C(F)(F)F)ncn2)=C(O)C1(C)C [Example 315, 2-[[2,3-Difluoro-4-(3-morpholin-4-ylprop-1-ynil)phenyl]methyl]-5-hydroxy-1,6,6-trimethyl-3-oxo-N-[4-(trifluoromethyl)-2-[6-(trifluoromethyl)pyrimidin-4-yl]phenyl]pyridazine-4-carboxamide]	63%
CN1N(Cc2ccc(C#CCN3CCOCC3)c(F)c2F)C(=O)C(C(=O)Nc2ccc(Cl)cc2-c2cc(C(F)(F)F)ncn2)=C(O)C1(C)C [Example 316, N-[4-Chloro-2-[6-(trifluoromethyl)pyrimidin-4-yl]phenyl]-2-[[2,3-difluoro-4-(3-morpholin-4-ylprop-1-ynil)phenyl]methyl]-5-hydroxy-1,6,6-trimethyl-3-oxopyridaxine-4-carboxamide]	64%
CN1N(Cc2ccc(OCCN3CCOCC3)c(F)c2F)C(=O)C(C(=O)Nc2ccc(C(F)(F)F)cc2-c2cc(C(F)(F)F)ncn2)=C(O)C12CCCC2 [Example 318, 7-[[2,3-Difluoro-4-(2-morpholin-4-ylethoxy)phenyl]methyl]-10-hydroxy-6-methyl-8-oxo-N-[4-(trifluoromethyl)-2-[6-(tritluoromethyl)pyrimidin-4-yl]phenyl]-6,7-diazaspiro[4.5]dec-9-ene-9-carboxamide]	43%
CN1N(Cc2ccc(OCCCC(=O)O)c(F)c2F)C(=O)C(C(=O)Nc2ccc(C(F)(F)F)cc2-c2cc(C(F)(F)F)ncn2)=C(O)C12CCCC2 [Example 332, 4-[2,3-Difluoro-4-[[10-hydroxy-6-methyl-8-oxo-9-[[4-(trifluoromethyl)-2-[6-(trifluoromethyl)pyrimidin-4-yl]phenyl]carbamoyl]-6,7-diazaspiro[4.5]dec-9-en-7-yl]methyl]phenoxy]butanoate]	3%
CN1N(Cc2ccc(OCCCCCC(=O)O)c(F)c2F)C(=O)C(C(=O)Nc2ccc(C(F)(F)F)cc2-c2cc(C(F)(F)F)ncn2)=C(O)C12CCCC2 [Example 334]	22%
CN1N(Cc2ccc(OCCCCCCC(=O)O)c(F)c2F)C(=O)C(C(=O)Nc2ccc(C(F)(F)F)cc2-c2cc(C(F)(F)F)ncn2)=C(O)C12CCCC2 [Example 335]	30%
CN1N(Cc2ccc(OCC(=O)N3CCOCC3)c(F)c2F)C(=O)C(C(=O)Nc2ccc(C(F)(F)F)cc2-c2cc(C(F)(F)F)ncn2)=C(O)C12CCC2 [Example 336]	44%
CN1N(Cc2ccc(OCCN3CCOC(=O)C3)c(F)c2F)C(=O)C(C(=O)Nc2ccc(C(F)(F)F)cc2-c2cc(C(F)(F)F)ncn2)=C(O)C12CCC2 [Example 337, 8-[[2,3-Difluoro-4-[2-(2-oxomorpholin-4-yl)ethoxy]phenyl]methyl]-5-hydroxy-9-methyl-7-oxo-N-[4-(trifluoromethyl)-2-[6-(trifluoromethyl)pyrimidin-4-yl]phenyl)-8.9-diazaspiro [3. 5]non-5-ene-6-carboxamide]	47%
CN(CCOc1ccc(CN2C(=O)C(C(=O)Nc3ccc(C(F)(F)F)cc3-c3cc(C(F)(F)F)ncn3)=C(O)C3(CCC3)N2C)c(F)c1F)C1CCOC1 (stereo not drawn) [Example 338, 6-[[2,3-Difluoro-4-[2-[methyl(oxolan-3-yl)amino]ethoxy]phenyl]methyl]-9-hydroxy-5-methyl-7-oxo-N-[4-(trifluoromethyl)-2-[6-(trifluoromethyl)pyrimidin-4-yl]phenyl]-5,6-diazaspiro[3.5]non-8-ene-8-carboxamide]	66%
CN1N(Cc2ccc(OCCN3[C@@H]4COC[C@H]3C4)c(F)c2F)C(=O)C(C(=O)Nc2ccc(C(F)(F)F)cc2-c2cc(C(F)(F)F)ncn2)=C(O)C12CCC2 [Example 339]	66%
CN1N(Cc2ccc(OCCN3C4CCC3COC4)c(F)c2F)C(=O)C(C(=O)Nc2ccc(C(F)(F)F)cc2-c2cc(C(F)(F)F)ncn2)=C(O)C12CCC2 [Example 340]	63%

From patent publication EP3928779A1 (Chugai Seiyaku Kabushiki Kaisha, priority 2014, dated 2016)
